From the supplement of paper PMC10307832

Experiments:
Experiment in all cases: relative viability (nuclei count vs DMSO), 5 days (fraction); higher = more cells survive
Bortezomib + Vorinostat = compound: CC(C)C[C@H](NC(=O)[C@H](Cc1ccccc1)NC(=O)c1cnccn1)B(O)O [Bortezomib] + O=C(CCCCCCC(=O)Nc1ccccc1)NO [Vorinostat] (partner 1 µM)
Summary of the method: (§1)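 Lung cancer cell lines in 1536-well plates got either a single drug or a fixed anchor-drug dose together with five library-drug doses (not always all listed) in √10 steps, by pin tool, on the day after seeding. Nuclei were counted after 5 days, and relative viability is the treated-to-vehicle ratio of nuclei counts. Values are medians of duplicate plates.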

[1] = compound: CC1=CC(=NN1)NC2=CC(=NC(=N2)/C=C/C3=CC=CC=C3)N4CCN(CC4)C + CC(=O)Nc1cccc(-n2c(=O)n(C3CC3)c(=O)c3c(Nc4ccc(I)cc4F)n(C)c(=O)c(C)c32)c1 [Trametinib] (partner 0.02 µM)
Summary of the method: as §1

[2] = compound: CC1=CC(=NN1)NC2=CC(=NC(=N2)/C=C/C3=CC=CC=C3)N4CCN(CC4)C + Cc1nc(NC(=O)N2CCC[C@H]2C(N)=O)sc1-c1ccnc(C(C)(C)C(F)(F)F)c1 [Alpelisib] (partner 2 µM)
Summary of the method: as §1

Obatoclax + Dasatinib = compound: COC1=CC(c2cc3ccccc3[nH]2)=N/C1=C\c1[nH]c(C)cc1C [Obatoclax] + Cc1nc(Nc2ncc(C(=O)Nc3c(C)cccc3Cl)s2)cc(N2CCN(CCO)CC2)n1 [Dasatinib] (partner 0.075 µM)
Summary of the method: as §1

| Cell Line | relative viability (Bortezomib + Vorinostat; first compound 0.0002 µM) | relative viability (Bortezomib + Vorinostat; first compound 0.000632 µM) | relative viability (Bortezomib + Vorinostat; first compound 0.002 µM) | relative viability (Bortezomib + Vorinostat; first compound 0.006325 µM) | relative viability (Bortezomib + Vorinostat; first compound 0.02 µM) | relative viability ([1]; first compound 0.08 µM) | relative viability ([1]; first compound 0.253 µM) | relative viability ([1]; first compound 0.8 µM) | relative viability ([1]; first compound 2.53 µM) | relative viability ([1]; first compound 8 µM) | relative viability ([2]; first compound 0.08 µM) | relative viability ([2]; first compound 0.253 µM) | relative viability ([2]; first compound 0.8 µM) | relative viability ([2]; first compound 2.53 µM) | relative viability ([2]; first compound 8 µM) | relative viability (Obatoclax + Dasatinib; first compound 0.01 µM) | relative viability (Obatoclax + Dasatinib; first compound 0.03162 µM) | relative viability (Obatoclax + Dasatinib; first compound 0.1 µM) | relative viability (Obatoclax + Dasatinib; first compound 0.3162 µM) | relative viability (Obatoclax + Dasatinib; first compound 1 µM) |
| --- | --- | --- | --- | --- | --- | --- | --- | --- | --- | --- | --- | --- | --- | --- | --- | --- | --- | --- | --- | --- |
| HCC-78 | 0.453 | 0.447 | 0.263 | 0.281 | 0.276 | 0.763 | 0.605 | 0.877 | 0.647 | 0.324 | 0.315 | 0.371 | 0.295 | 0.275 | 0.117 | 0.48 | 0.406 | 0.419 | 0.324 | 0.418 |
| HCC-366 | 0.352 | 0.377 | 0.33 | 0.113 | 0.026 | 0.334 | 0.372 | 0.253 | 0.0375 | 0.0236 | 0.376 | 0.646 | 0.363 | 0.0741 | 0.0115 | 0.667 | 0.574 | 0.39 | 0.574 | 0.533 |
| HCC-827 | 0.802 | 0.883 | 0.799 | 0.814 | 0.182 | 0.507 | 0.405 | 0.513 | 0.427 | 0.273 | 0.934 | 0.984 | 1.02 | 0.874 | 0.475 | 0.451 | 0.292 | 0.417 | 0.407 | 0.388 |
| HOP-62 | 0.589 | 0.654 | 0.6 | 0.131 | 0.0601 | 0.382 | 0.297 | 0.36 | 0.337 | 0.163 | 0.937 | 1.09 | 0.931 | 0.942 | 0.164 | 0.718 | 0.64 | 0.439 | 0.787 | 0.534 |
| LC-2-ad | 0.74 | 0.68 | 0.665 | 0.209 | 0.185 | 0.873 | 0.89 | 0.868 | 0.463 | 0.196 | 0.861 | 0.781 | 0.714 | 0.0868 | 0.0702 | 0.696 | 0.504 | 0.507 | 0.394 | 0.463 |
| LCLC-97TM1 | 0.615 | 0.695 | 0.748 | 0.148 | 0.0598 | 0.186 | 0.142 | 0.209 | 0.182 | 0.0966 | 0.225 | 0.288 | 0.191 | 0.146 | 0.111 | 0.928 | 0.746 | 0.916 | 0.842 | 0.682 |
| LCLC-103H | 0.791 | 0.773 | 0.827 | 0.359 | 0.236 | 0.667 | 0.641 | 0.677 | 0.651 | 0.528 | 0.917 | 1.01 | 1.07 | 0.804 | 0.441 | 0.458 | 0.464 | 0.411 | 0.517 | 0.53 |
| LK-2 | 0.401 | 0.416 | 0.323 | 0.173 | 0.195 | 0.836 | 0.48 | 0.697 | 0.417 | 0.129 | 1.1 | 0.668 | 0.966 | 0.605 | 0.211 | 0.329 | 0.263 | 0.394 | 0.375 | 0.229 |
